For 11 compounds, IC50 results are on record in patent publication US9085555B2, “Complement pathway modulators and uses thereof” (priority 2011, dated 2015).

The IC50 is the concentration that gives 50% inhibition.

In this assay the target is Factor D (Homo sapiens (Human), UniProt P00746). Put plainly: biochemical. The assay is classed as biochemical. Particulars: read-out: IC50.
Factor D, sequence (P00746 26-253): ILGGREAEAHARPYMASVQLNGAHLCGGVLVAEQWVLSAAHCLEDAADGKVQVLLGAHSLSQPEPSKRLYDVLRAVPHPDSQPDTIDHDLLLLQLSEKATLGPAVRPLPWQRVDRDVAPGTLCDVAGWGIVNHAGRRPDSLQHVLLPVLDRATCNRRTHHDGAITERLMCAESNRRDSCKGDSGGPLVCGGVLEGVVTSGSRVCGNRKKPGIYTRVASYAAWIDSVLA
`NC(=O)n1cc(NC(=O)N2C[C@@H](N)C[C@H]2C(=O)NCc2ccccc2F)c2ccccc21` [Example 49, (2S,4S)-4-Amino-pyrrolidine-1,2-dicarboxylic acid 1-[(1-carbamoyl-1H-indol-3-yl)-amide] 2-(2-fluoro-benzylamide)]: the half-inhibitory concentration (IC50) was 0.9 µM.
With `CC(=O)c1cn(CC(=O)N2[C@@H]3C[C@@H]3C[C@H]2C(=O)Nc2cccc(OC(F)(F)F)c2F)c2ncccc12` [Example 562, (1R,3S,5R)-2-[2-(3-Acetyl-pyrrolo[2,3-b]pyridin-1-yl)-acetyl]-2-aza-bicyclo[3.1.0]hexane-3-carboxylic acid (2-fluoro-3-trifluoromethoxy-phenyl)-amide], the IC50 worked out at 0.804 µM.
Take `NC[C@@]1(F)C[C@@H](C(=O)NCc2c(F)ccc(Cl)c2F)N(C(=O)Nc2cn(C(N)=O)c3ccccc23)C1` [Example 411, (2S,4S)-4-aminomethyl-4-fluoro-pyrrolidine-1,2-dicarboxylic acid 1-[(1-carbamoyl-1H-indol-3-yl)-amide]2-(3-chloro-2,6-difluoro-benzylamide)]: the IC50 came to 0.026 µM.
As to `CNC(=O)c1cc(Cl)c(F)c(CNC(=O)[C@@H]2C[C@@H](F)CN2C(=O)Nc2cn(C(N)=O)c3ccccc23)c1` [Example 240, (2S,4R)-4-Fluoro-pyrrolidine-1,2-dicarboxylic acid 1-[(1-carbamoyl-1H-indol-3-yl)-amide] 2-(3-chloro-2-fluoro-5-methylcarbamoyl-benzylamide)], the IC50 was found to be 0.141 µM.
`NC(=O)n1cc(CC(=O)N2C[C@H](F)[C@@H](N)[C@H]2C(=O)NCc2cccc(Cl)c2F)c2ccccc21` [Example 466, 3-{2-[(2S,3S,4S)-3-Amino-2-(3-chloro-2-fluoro-benzylcarbamoyl)-4-fluoro-pyrrolidin-1-yl]-2-oxo-ethyl}-indole-1-carboxylic acid amide]: the IC50 came to 0.043 µM.
On to `NC(=O)n1cc(NC(=O)N2[C@@H]3C[C@@H]3C[C@H]2C(=O)NCc2cccc(F)c2F)c2ccccc21` [Example 195, (1R,3S,5R)-2-Aza-bicyclo[3.1.0]hexane-2,3-dicarboxylic acid 2-[(1-carbamoyl-1H-indol-3-yl)-amide] 3-(2,3-difluoro-benzylamide)], for which the half-maximal inhibitory concentration (IC50) worked out at 0.014 µM.
For `NC(=O)n1cc(NC(=O)N2C[C@@H](N)C[C@H]2C(=O)Nc2ccccc2)c2ccccc21` [Example 27, (2S,4S)-4-Amino-pyrrolidine-1,2-dicarboxylic acid 1-[(1-carbamoyl-1H-indol-3-yl)-amide] 2-phenylamide], the concentration for half-maximal inhibition (IC50) came out at 8.3 µM.
With `CC(=O)c1nc(CC(=O)N2[C@@H]3C[C@@H]3C[C@H]2C(=O)NCc2cccc(Cl)c2F)n2ccccc12` [Example 621, (1R,3S,5R)-2-[2-(1-Acetyl-imidazo[1,5-a]pyridin-3-yl)-acetyl]-2-aza-bicyclo[3.1.0]hexane-3-carboxylic acid 3-chloro-2-fluoro-benzylamide], the half-maximal inhibitory concentration (IC50) was found to be 0.019 µM.
As for `NC(=O)n1cc(NC(=O)N2N=CCC2C(=O)NCc2cccc(Cl)c2F)c2ccccc21` (racemic) [Example 201, 4,5-Dihydro-pyrazole-1,5-dicarboxylic acid 1-[(1-carbamoyl-1H-indol-3-yl)-amide] 5-(3-chloro-2-fluoro-benzylamide)], the half-maximal inhibitory concentration (IC50) was found to be 0.02 µM.
As for `COC(=O)COc1ccc2c(c1)c(NC(=O)N1C[C@](C)(F)C[C@H]1C(=O)NCc1cccc(Cl)c1F)cn2C(N)=O` [Example 318, (1-carbamoyl-3-{[(2S,4R)-2-(3-chloro-2-fluoro-benzylcarbamoyl)-4-fluoro-4-methyl-pyrrolidine-1-carbonyl]amino}-1H-indol-5-yloxy)-acetic acid methyl ester], the IC50 was 0.003 µM.
In the case of `COCCOc1ccc2c(c1)c(NC(=O)N1C[C@H](F)C[C@H]1C(=O)NCc1cccc(Cl)c1F)cn2C(N)=O` [Example 303, (2S,4R)-4-Fluoro-pyrrolidine-1,2-dicarboxylic acid 1-{[1-carbamoyl-5-(2-methoxy-ethoxy)-1H-indol-3-yl]-amide} 2-(3-chloro-2-fluoro-benzylamide)], the half-inhibitory concentration (IC50) was determined as 0.008 µM.
